Laboratory results published in US20260061084A1, “FIBROBLAST ACTIVATION PROTEIN (FAP) INHIBITORS, FAP CONJUGATES, AND DIAGNOSTIC AND THERAPEUTIC USES THEREOF” (Nuclidium AG, priority 2022, published 2026).

Experiments:
[1] = tested on: HT-1080.hFAP (FAP-positive) cells; test: In vitro cellular uptake (cell surface-bound and internalized fractions); assay type: cell-based, human; conditions: 37° C., specific uptake (HT-1080.wt subtracted)
Method: The cellular uptake was studied in vitro using intact cells seeded in 6-well plates overnight. […] At each investigated time point, the medium containing the unbound (free) radiotracer was removed, followed by two washing steps with ice-cold phosphate-buffered saline. The cells were then treated 2×5 min with ice-cold glycine solution (0.05 M, pH 2.8) to detach the cell surface-bound radiotracer (acid released). Afterwards, the cells containing the internalized radiotracer were detached with 1 M NaOH at 37° C. and collected for measurement. The amount of specific cell surface-bound and internalized radiotracer is expressed as percentage of the total applied activity, after subtracting the non-specific values.
The cells were then preconditioned in 360 μL of assay medium (MEM medium without supplements) at 37° C. for 60 min. 40 μL of a 2 nM solution of ^61Cu-labeled radioligand was added and the cells were incubated at 37° C. The cellular uptake was interrupted at different time points (15 min, 1 hour and 4 hours), by washing twice with ice-cold PBS. Cell surface-bound radioligand was obtained by washing cells twice with ice-cold glycine buffer (pH 2.8), followed by a collection of the internalized fraction with 1 M NaOH. The activity in each fraction was measured in a […] (Cobra II).

[2] = tested on: HT-1080.hFAP tumor-bearing mice; test: Biodistribution studies in xenografted mice; assay type: in vivo; conditions: for Biodistribution: Spleen / Biodistribution: Heart / Biodistribution: Liver / Biodistribution: Lung / Biodistribution: Stomach / Biodistribution: HT-1080.wt / Biodistribution: HT-1080.hFAP / Biodistribution: Intestine / Biodistribution: Blood / Biodistribution: Kidneys / Biodistribution: Pancreas / Biodistribution: Adrenal / Biodistribution: Muscle: i.v.; for Biodistribution: HT-1080.wt: FAP-negative tumor; for Biodistribution: HT-1080.hFAP: FAP-positive tumor; for Accumulation in FAP-positive (HT-1080.hFAP) tumor and murine-FAP-positive tissues, such as the bone marrow (bones): xenografted mice, 1 h and 4 h p.i.
Method: The tumors were allowed to grow to an average volume of 100-200 mm^3.
Biodistribution Studies: The xenografted mice were randomized (n=5 per group) and injected intravenously via the tail vein with the ^61Cu-labeled radioligands (100 μL, […], 0.8-1MBq). Mice were euthanized 1 h and 4 h p.i. by CO2 asphyxiation. Organs of interest and blood were collected, rinsed of excess blood, blotted dry, weighed, and counted in a […]. The samples were counted against a suitably diluted aliquot of the injected solution as the standard and the results are expressed as the percentage of the injected activity per gram of tissue (% I.A./g) ±SD.

[3] = tested on: Mice bearing FAP-positive and FAP-negative xenografts; test: PET/CT imaging: remaining PET activity in the mouse body; assay type: in vivo
Method: The mice were euthanized by CO2 at 4 hours p.i., and static PET scans were acquired for 30 min.
PET/CT images were acquired using β-CUBE PET scanner system (Molecubes, Gent, Belgium), with a spatial resolution of 0.85 mm and an axial field-of-view of 13 cm. Dynamic PET scans were acquired for 60 min. All PET scans were decay corrected and reconstructed into a 192×192×384 matrix by an ordered subsets maximization expectation (OSEM) algorithm using 30 iterations, a voxel size of 400×400×400 μm a 15 min per frame. CT data was used to apply attenuation correction on the PET data. The CT was imaged supine, head first, using the NanoSPECT/CTTM scanner (Bioscan Inc.). Topograms and helical CT scans of the whole mouse were first acquired using the following parameters: X-ray tube current: 177 μA, X-ray tube voltage 45 kVp, 90 seconds and 180 frames per rotation, pitch 1. CT images were reconstructed using CTReco (version r1.146), with a standard filtered back projection algorithm (exact cone beam) and post-filtered (RamLak, 100% frequency cut-off), resulting in a pixel size of 0.2 mm. Co-registered PET/CT images were visualized using maximum intensity projection (MIP) with VivoQuant software (version 4.0).

Row | Compound | Cell surface fraction ([1]; 15 min) | Internalized fraction ([1]; 30 min) | Cell surface fraction ([1]; 60 min) | Internalized fraction ([1]; 60 min) | Cell surface fraction ([1]; 240 min) | Internalized fraction ([1]; 240 min) | Biodistribution: Spleen ([2]; 1 hour p.i.) | Biodistribution: Heart ([2]; 4 hours p.i.) | Biodistribution: Liver ([2]; 4 hours p.i.) | Biodistribution: Lung ([2]; 4 hours p.i.) | Biodistribution: Spleen ([2]; 4 hours p.i.) | Biodistribution: Stomach ([2]; 4 hours p.i.) | Biodistribution: HT-1080.wt ([2]; 1 hour p.i.) | Biodistribution: HT-1080.wt ([2]; 4 hours p.i.) | Biodistribution: HT-1080.hFAP ([2]; 1 hour p.i.) | Biodistribution: HT-1080.hFAP ([2]; 4 hours p.i.) | Accumulation in FAP-positive (HT-1080.hFAP) tumor and murine-FAP-positive tissues, such as the bone marrow (bones) [2] | Biodistribution: Intestine ([2]; 1 hour p.i.) | Biodistribution: Liver ([2]; 1 hour p.i.) | Biodistribution: Stomach ([2]; 1 hour p.i.) | other results
1 | N#CC1CC(F)(F)CN1C(=O)CNC(=O)c1ccnc2ccc(NC(=O)CCC(=O)NCCNC(=O)CCC(C(=O)O)N3CCN(CC(=O)[O-])CCN(CC(=O)[O-])CC3)cc12.[61Cu+2] (stereo not drawn) [[^61Cu]Cu-NODAGA-1] | 1.2 ± 0.3 % of the applied activity | 26.2 ± 3.5 % of the applied activity | 1.4 ± 0.3 % of the applied activity | 29.9 ± 1.8 % of the applied activity | 1.3 ± 0.2 % of the applied activity | 29.3 ± 1.8 % of the applied activity | 0.8 ± 0.1 % I.A./g | 0.7 ± 0.1 % I.A./g | 1.0 ± 0.2 % I.A./g | 0.8 ± 0.2 % I.A./g | 0.5 ± 0.1 % I.A./g | 0.7 ± 0.1 % I.A./g | 4.5 ± 0.6 % I.A./g | 2.1 ± 0.5 % I.A./g | 12.6 ± 1.5 % I.A./g | 7.1 ± 3.0 % I.A./g | high accumulation | – | – | – | Retention in the body (remaining PET activity 4 h p.i.), in words [3]: highest retention in the body
2 | N#CC1CC(F)(F)CN1C(=O)CNC(=O)c1ccnc2ccc(NC(=O)CCC(=O)N3CCN(C(=O)CCC(C(=O)O)N4CCN(CC(=O)[O-])CCN(CC(=O)[O-])CC4)CC3)cc12.[61Cu+2] (stereo not drawn) [[^61Cu]Cu-NODAGA-3] | 0.9 ± 0.3 % of the applied activity | 26.6 ± 4.9 % of the applied activity | 1.2 ± 0.4 % of the applied activity | 36.9 ± 5.3 % of the applied activity | 1.4 ± 0.4 % of the applied activity | 39.4 ± 4.8 % of the applied activity | 0.5 ± 0.1 % I.A./g | 0.5 ± 0.0 % I.A./g | 0.7 ± 0.1 % I.A./g | 0.7 ± 0.1 % I.A./g | 0.3 ± 0.0 % I.A./g | 0.5 ± 0.0 % I.A./g | 4.0 ± 2.2 % I.A./g | 1.8 ± 0.3 % I.A./g | 7.9 ± 0.9 % I.A./g | 6.4 ± 2.0 % I.A./g | high accumulation | 0.8 ± 0.2 % I.A./g | 0.9 ± 0.1 % I.A./g | 0.8 ± 0.1 % I.A./g | Biodistribution: Heart ([2]; 1 hour p.i.): 0.7 ± 0.1 % I.A./g; Biodistribution: Blood ([2]; 4 hours p.i.): 0.9 ± 0.0 % I.A./g; Biodistribution: Intestine ([2]; 4 hours p.i.): 0.4 ± 0.1 % I.A./g; Biodistribution: Kidneys ([2]; 4 hours p.i.): 1.0 ± 0.2 % I.A./g; Biodistribution: Pancreas ([2]; 4 hours p.i.): 0.9 ± 0.0 % I.A./g
3 | CN(CCCN1CCN(C(=O)CCC(C(=O)O)N2CCN(CC(=O)[O-])CCN(CC(=O)[O-])CC2)CC1)c1ccc2nccc(C(=O)NCC(=O)N3CC(F)(F)CC3C#N)c2c1.[61Cu+2] (stereo not drawn) [[^61Cu]Cu-NODAGA-FAPI-46, reference compound] | 0.9 ± 0.3 % of the applied activity | 24.3 ± 2.3 % of the applied activity | 1.2 ± 0.4 % of the applied activity | 36.1 ± 1.6 % of the applied activity | 1.7 ± 0.4 % of the applied activity | 50.0 ± 6.0 % of the applied activity | 0.7 ± 0.1 % I.A./g | 0.7 ± 0.1 % I.A./g | 0.8 ± 0.2 % I.A./g | 1.0 ± 0.1 % I.A./g | 0.5 ± 0.1 % I.A./g | 0.6 ± 0.1 % I.A./g | 3.1 ± 0.0 % I.A./g | 2.5 ± 0.2 % I.A./g | 8.4 ± 1.4 % I.A./g | 7.7 ± 0.4 % I.A./g | – | 1.0 ± 0.4 % I.A./g | 0.9 ± 0.0 % I.A./g | 1.0 ± 0.1 % I.A./g | Biodistribution: Pancreas ([2]; 1 hour p.i.): 2.0 ± 0.2 % I.A./g; Biodistribution: Adrenal ([2]; 4 hours p.i.): 2.0 ± 0.2 % I.A./g; Biodistribution: Intestine ([2]; 4 hours p.i.): 0.6 ± 0.2 % I.A./g; Biodistribution: Kidneys ([2]; 4 hours p.i.): 1.0 ± 0.1 % I.A./g; Retention in the body (remaining PET activity 4 h p.i.), in words [3]: highest retention in the body
4 | CN(C(=O)CCC(=O)NCCNC(=O)CCC(C(=O)O)N1CCN(CC(=O)[O-])CCN(CC(=O)[O-])CC1)c1ccc2nccc(C(=O)NCC(=O)N3CC(F)(F)CC3C#N)c2c1.[61Cu+2] (stereo not drawn) [[^61Cu]Cu-NODAGA-2] | 1.2 ± 0.6 % of the applied activity | 20.7 ± 5.5 % of the applied activity | 1.4 ± 0.5 % of the applied activity | 27.0 ± 6.9 % of the applied activity | 1.3 ± 0.5 % of the applied activity | 28.3 ± 7.5 % of the applied activity | 0.4 ± 0.1 % I.A./g | 0.3 ± 0.0 % I.A./g | 0.6 ± 0.1 % I.A./g | 0.4 ± 0.0 % I.A./g | 0.2 ± 0.0 % I.A./g | 0.3 ± 0.1 % I.A./g | 1.4 ± 0.2 % I.A./g | 0.9 ± 0.1 % I.A./g | 3.5 ± 1.0 % I.A./g | 4.0 ± 0.6 % I.A./g | high accumulation | 0.5 ± 0.1 % I.A./g | 0.6 ± 0.1 % I.A./g | 0.6 ± 0.1 % I.A./g | Biodistribution: Heart ([2]; 1 hour p.i.): 0.6 ± 0.1 % I.A./g; Biodistribution: Lung ([2]; 1 hour p.i.): 0.8 ± 0.1 % I.A./g; Biodistribution: Muscle ([2]; 1 hour p.i.): 0.9 ± 0.1 % I.A./g; Biodistribution: Adrenal ([2]; 4 hours p.i.): 0.3 ± 0.1 % I.A./g; Biodistribution: Blood ([2]; 4 hours p.i.): 0.5 ± 0.1 % I.A./g; Biodistribution: Intestine ([2]; 4 hours p.i.): 0.3 ± 0.1 % I.A./g; Biodistribution: Kidneys ([2]; 4 hours p.i.): 1.0 ± 0.1 % I.A./g; Biodistribution: Muscle ([2]; 4 hours p.i.): 0.4 ± 0.1 % I.A./g; Biodistribution: Pancreas ([2]; 4 hours p.i.): 0.5 ± 0.0 % I.A./g
